Results published in patent US7659293B2, “α-Amino-N-hydroxy-acetamide derivatives” (Novartis AG, priority 2001, dated 2010).
Structures can show the parent of a compound that is named as a salt.

Molecular target: T1, MMP2 (gelatinase A) (Homo sapiens, UniProt P08253)
T1 construct: made in house; host or cells: baculovirus (pFAST BAC 1) in Tn insect cells, secreted
T1 sequence (P08253 110-660): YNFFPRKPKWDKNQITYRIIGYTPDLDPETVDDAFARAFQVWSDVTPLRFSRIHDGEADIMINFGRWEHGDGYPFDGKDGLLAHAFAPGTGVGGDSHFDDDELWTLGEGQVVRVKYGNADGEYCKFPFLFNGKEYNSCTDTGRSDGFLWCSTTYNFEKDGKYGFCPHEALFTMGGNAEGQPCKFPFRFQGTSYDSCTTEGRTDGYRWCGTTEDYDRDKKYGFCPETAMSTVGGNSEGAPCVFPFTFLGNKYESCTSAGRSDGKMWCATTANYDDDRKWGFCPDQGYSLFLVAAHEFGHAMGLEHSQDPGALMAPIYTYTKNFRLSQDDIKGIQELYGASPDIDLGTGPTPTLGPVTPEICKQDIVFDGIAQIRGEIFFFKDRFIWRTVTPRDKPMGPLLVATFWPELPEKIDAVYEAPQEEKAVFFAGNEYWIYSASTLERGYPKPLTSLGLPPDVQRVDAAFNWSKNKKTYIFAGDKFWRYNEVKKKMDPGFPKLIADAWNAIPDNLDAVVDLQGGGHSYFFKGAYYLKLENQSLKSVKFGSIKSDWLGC
Test: MMP2 (gelatinase A) fluorogenic substrate inhibition assay
Assay type: biochemical
Settings: mean ± SEM of three independent experiments
Experimental: The inhibitory activities of compounds of formula I on MT1-MMP, MMP1 (collagenase 1) and MMP2 (gelatinase A) can be determined as follows:
Stock solutions of substrate (MCA-Pro-Leu-Gly-Leu-Dpa-Ala-Arg-NH2 (SEQ ID NO: 1), C. G. Knight, et al, FEBS lett., 296, 263-266, (1992)), are prepared in 100% DMSO at a concentration 1.0 mM.
Stock solutions of inhibitors are prepared in 100% DMSO. The inhibitor is diluted into the assays from a solution in 100% DMSO, and controls substitute an equal volume of DMSO so that the final DMSO concentration from inhibitor and substrate dilutions in all assays is 6.0%. Assays are performed in assay buffer (150 mM NaCl, 10 mM CaCl2, 50 mM Tris-Cl pH7.5, 0.05% Brij-35) containing 6.0% DMSO once the substrate and inhibitor are diluted into it. The substrate concentration used in the assays is […]. The test is carried out at 37° C. The fluorescence changes are monitored using an excitation wavelength of 320 nm and an emission wavelength of […]. The reaction mixture is added in duplicate to appropriate wells of a 96 well microfluor plate. The reaction mixture is preincubated with the inhibitor for 30 min, the reaction is started by the addition of MMP enzyme and the fluorescence intensity is measured for 10 min. A time point that is on a linear part of the curve is chosen to determine the activity. […]

## CN(C)c1ccc(CN(CC(=O)NO)S(=O)(=O)c2ccc(OCC3CC3)cc2)cc1 [Example 2, 2-[(4-Cyclopropylmethoxy-benzenesulfonyl)-(4-dimethylamino-benzyl-amino]-N-hydroxy-acetamide HCl salt]
  IC50: 3.29 ± 0.49 nM
